According to patent US9012152B2, “Anti-bacterial peptides and methods of treating diseases using same” (Yissum Research Development Company of the Hebrew …, priority 2007, dated 2015):

Columns and labels:
[1] = Effect of pH on EDF; format: physicochemical; details: supernatant incubated at pH 3, 5, 7, 9 or 11 for 2 hours; extreme pH; readout: restoring mazEF-mediated cell death
Description: Effect of pH on EDF: Supernatants from the “donor” cultures described above were incubated at pH 3, 5, 7, 9 or 11 for 2 hours and titrated to PH 7. Their ability to restore mazEF-mediated cell death to a diluted culture was determined as described above.

[2] = Effect of temperature on EDF; format: physicochemical; details: supernatant incubated 10 minutes; high temperature (80° C. to 100° C.)
Description: Effect of temperature on EDF: Supernatants from the “donor” cultures described above were incubated at 37° C., 60° C., 80° C., or 100° C. for 10 minutes and cooled to 37° C. Their ability to restore mazEF-mediated cell death to a diluted culture was determined as described above.

[3] = target: proteinase K (Parengyodontium album, UniProt P06873); assay: Effect of proteinase K on EDF; details: supernatant with proteinase K-agarose beads, 37° C., 2 hours
Description: Effect of proteinase K on EDF: Supernatants from the “donor” cultures described above were incubated with shaking at 37° C. for 2 hours as such or with agarose bease or with proteinase K-agarose beads. The beads were then removed by centrifugation at 14,000 rpm for 10 minutes. Their ability to restore mazEF-mediated cell death to a diluted culture was determined as described above.

[4] = tested on: E. coli MC4100relA^+wt(WT) and MC4100relA^+ΔmazEF; assay: Killing of E. coli cells by chemically synthesized EDF in combination with other antibiotic; format: cell-based; details: diluted culture
Description: Killing of E. coli cells by chemically synthesized EDF in combination with other antibiotic: E. coli MC4100relA^+wt(WT) and MC4100relA^+ΔmazEF (ΔmazEF) were grown for 12 hours in M9 medium with shaking (160 rpm). Then, cells were diluted 1:100 in M9 medium and were grown with shaking (160 rpm) at 37° C. to a mid-logarithmic phase (OD600=0.6). Duplicate samples were removed from the cultures at a density of 2.5×10^8 (Dense), diluted in pre-heated M9 medium to the density of 3×10^4 (M9) or diluted in pre-heated M9 applied with different concentrations of EDF. The samples were incubated for 10 minutes at 37° C. without shaking Then rifampicin (10 μg/ml) was added and the cells were incubated for 10 minutes without shaking. The cells were centrifuged in 14000 rpm for 5 minutes and washed in pre-heated saline. Then, the cells were diluted, plated on LB plates and incubated at 37° C. for 12 hours. Cell killing was calculated by comparing the number of the colony-forming ability of cells treated by stressful conditions to those of the cells that were not exposed to the treatment.

[5] = tested on: E. coli MC4100relA^+wt (WT) and MC4100relA^+ΔmazEF; assay: Killing of E. coli cells by chemically synthesized EDF itself; format: cell-based; details: chemically synthesized EDF by itself (without antibiotic), 3 hours
Description: Killing of E. coli cells by chemically synthesized EDF itself: E. coli MC4100relA^+wt (WT) and MC4100relA^+ΔmazEF (ΔmazEF) were grown for 12 hours in M9 medium with shaking (160 rpm). Then, cells were diluted 1:100 in M9 medium and were grown with shaking (160 rpm) at 37° C. to a mid-logarithmic phase (OD600=0.6). Samples were removed from the cultures at a density of 2.5×10^8 (Dense), centrifuged in 14000 rpm for 5 minutes and washed in pre-heated M9. The samples were applied with different concentrations of EDF, incubated for 3 hours at 37° C. without shaking. Then, cells were centrifuged in 14000 rpm for 5 minutes and washed in pre-heated saline. Then, the cells were diluted, plated on LB plates and incubated at 37° C. for 12 hours. Cell killing was calculated by comparing the number of the colony-forming ability of cells treated by stressful conditions to those of the cells that were not exposed to the treatment.

[6] = tested on: MC4100relA^+; assay: EDF response of recipient culture, strain MC4100relA^+; format: cell-based, E. coli; details: rifampicin 10 μg/ml
Description: (§1) Comparison of EDF response in MC4100relA^+, K38, W3110, and MG1655 E. coli strains: Cultures of MC4100relA^+, K38, W3110, and MG1655 E. coli were grown as described in Example 1. When the cultures reached a density of 2.5×10^8 cells/ml, duplicate samples were removed and diluted to 3×10^4 cells/ml in pre-heated supernatant of a dense culture of MC4100relA^+(WT) which had been titrated to have an EDF concentration of either 1 unit/ml or 10 units/ml (quantified as described in Example 3). After incubation without shaking at 37° C. for 10 minutes, rifampicin (10 μg/ml) was added, and the culture was incubated without shaking at 37° C. for an additional 10 minutes. Cells were centrifuged in 14,000 rpm for 5 minutes and washed in pre-heated saline. Then, the cells were diluted, plated on LB plates, and incubated at 37° C. for 12 hours. Cell survival was calculated by comparing the colony-forming units (CFUs) of treated cells to those of untreated cells.

[7] = tested on: K-38; assay: EDF response of recipient culture, strain K-38; format: cell-based, E. coli; details: rifampicin 10 μg/ml
Description: as §1

[8] = tested on: MG1655; assay: EDF response of recipient culture, strain MG1655; format: cell-based, E. coli; details: rifampicin 10 μg/ml
Description: as §1

[9] = tested on: W3110; assay: EDF response of recipient culture, strain W3110; format: cell-based, E. coli; details: rifampicin 10 μg/ml
Description: as §1

[10] = tested on: E. Coli MC4100relA^+ cells, K38 cells and W3110; assay: Chemically synthesized EDF restores mazEF mediated cell death to a dilute culture; format: cell-based; details: synthetic EDF 2.5 ng/ml
Description: Chemically synthesized EDF restores mazEF mediated cell death to a dilute culture: E. Coli MC4100relA^+ cells, K38 cells and W3110 and ΔmazEF cells were grown as described in Example 1 herein above. At a density of 2.5×10^8 cells/ml, samples were either not diluted (dense) or diluted to 3×10^4 cells/ml in pre-warmed M9 medium (Diluted culture) or in a pre-warmed M9 applied with chemically synthesized EDF (2.5 ng/ml; diluted culture+EDF). For FIGS. 12A-C, samples were incubated with rifampicin as in FIG. 2A. For FIG. 13A, samples were incubated in trimethorpin (2 μg/ml) for 1 hour and for FIG. 13B samples were incubated in chlorapmphenicol (50 μg/ml) for 20 minutes.

[11] = tested on: E. coli MC4100relA^+; assay: E. coli mazEF-mediated cell death in the presence of synthesized wild type and mutated EDF; format: cell-based; details: 1 μg/ml of peptide; rifampicin 10 μg/ml, 10 minutes; diluted culture 3×10^4
Description: (§2) E. coli mazEF-mediated cell death in the presence of synthesized wild type (WT) and mutated EDF. E. coli MC4100relA^+t(WT) and MC4100relA^+ΔmazEF (ΔmazEF) were grown for 12 hours in M9 medium with shaking (160 rpm). Then, cells were diluted 1:100 in M9 medium and were grown with shaking (160 rpm) at 37° C. to a mid-logarithmic phase (OD600=0.6). Duplicate samples were removed from the cultures at a density of 2.5×10^8 (Dense), diluted in pre-heated M9 medium to the density of 3×10^4 (M9) or diluted in pre-heated M9 applied with 1 μg/ml of one of the synthesized EDFs (SEQ ID NOs: 1-6). The samples were incubated for 10 minutes at 37° C. without shaking. Then rifampicin (10 μg/ml) was added and the cells were incubated for 10 minutes without shaking. The cells were centrifuged in 14000 rpm for 5 minutes and washed in pre-heated saline. Then, the cells were diluted, plated on LB plates and incubated at 37° C. for 12 hours. Cell killing was calculated by comparing the number of the colony-forming ability of cells treated by stressful conditions to those of the cells that were not exposed to the treatment.

[12] = tested on: E. Coli NC4100relA^+; assay: Ability of mutant EDF molecules to inhibit wild type EDF activity; format: cell-based; details: constant amount (50 ng/ml) of mutated EDF, various concentrations of WT EDF
Description: FIG. 15 is a graph illustrating the ability of mutant EDF molecules to inhibit wild type EDF activity. The […] peptides analyzed include NNWNN (SEQ ID NO: 1); GNWNN (SEQ ID NO: 2); NGWNN (SEQ ID NO: 3); NNGNN (SEQ ID NO: 4); NNWGN (SEQ ID NO: 5); and NNWNG (SEQ ID NO: 6).
Ability of mutant EDF molecules to inhibit wild type EDF activity: Various concentration of chemically synthesized WT EDF (SEQ ID NO: 1) were added to diluted cultures of E. Coli NC4100relA^+ containing a constant amount (50 ng/ml) of each of the mutated EDF described in Table 6. The Experiment was carried out as described herein above.

[13] = tested on: E. Coli MC41relA^+; assay: EDF activity of modified derivatives (size and external Asn residues); format: cell-based; details: various concentrations added to diluted cultures; incubated with rifampicin
Description: The […] peptides analyzed include NNWNN (SEQ ID NO: 1); GNWNN (SEQ ID NO: 2); NGWNN (SEQ ID NO: 3); NNGNN (SEQ ID NO: 4); NNWGN (SEQ ID NO: 5); and NNWNG (SEQ ID NO: 6). […] Chemically synthesized EDF (SEQ ID NO: 1) or its modified derivatives were added at various concentrations to diluted cultures of E. Coli MC41relA^+. No EDF was added to a control culture. […] Samples were incubated with rifampicin as described in Example 1.
as §2, with “Duplicate samples were removed from the cultures at a density of 2.5×10^8 (Dense), diluted in pre-heated M9 medium to the density of 3×10^4 (M9) or diluted in pre-heated M9 applied with 1 μg/ml of one of the synthesized EDFs (SEQ ID NOs: 1-6).” left out

[14] = EDF 10 units/ml (titrated supernatant)
[15] = EDF 1 units/ml (titrated supernatant)

Sequence of proteinase K (P06873 106-384): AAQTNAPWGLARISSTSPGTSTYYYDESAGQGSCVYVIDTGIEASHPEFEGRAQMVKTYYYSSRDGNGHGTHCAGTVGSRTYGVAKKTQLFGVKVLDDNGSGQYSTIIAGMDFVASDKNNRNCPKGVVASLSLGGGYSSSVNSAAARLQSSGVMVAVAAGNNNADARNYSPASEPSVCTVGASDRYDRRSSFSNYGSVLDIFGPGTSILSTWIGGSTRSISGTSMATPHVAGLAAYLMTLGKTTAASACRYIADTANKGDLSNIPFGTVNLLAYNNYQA

Asn-Asn-Trp-Asn-Asn (NNWNN; Chemically synthesized WT EDF) [linear pentapeptide NNWNN, extracellular death factor of E. coli; purified from supernatant and chemically synthesized]
sensitivity of EDF to pH [1]: sensitive | sensitivity of EDF to temperature [2]: sensitive | sensitivity of EDF to proteinase K [3]: sensitive | concentrations of EDF at which cell death is mazEF-independent ([4]; chemically synthesized EDF in conjunction with an antibiotic (rafamycin)): over 500 ng/ml | concentrations of EDF at which cell death is mazEF-dependent ([4]; chemically synthesized EDF in conjunction with an antibiotic): 1 to 500 ng/mL | concentrations of EDF at which cell death is mazEF-dependent [5]: 1 to 10 µg/mL | concentrations of EDF at which cell death is mazEF-independent [5]: > 10 µg/mL | % Survival of recipient culture in response to added EDF ([6]; EDF 1 units/ml (titrated supernatant of dense MC4100relA^+ culture)): 8.0 ± 5.0% | % Survival of recipient culture in response to added EDF [6, 14]: 7.0 ± 2.0% | % Survival of recipient culture in response to added EDF [7, 15]: 17.0 ± 4.2% | % Survival of recipient culture in response to added EDF [7, 14]: 12.0 ± 6.6% | % Survival of recipient culture in response to added EDF [8, 15]: 77.8 ± 3.4% | % Survival of recipient culture in response to added EDF [8, 14]: 19.6 ± 4.5% | % Survival of recipient culture in response to added EDF [9, 15]: 15.0 ± 3.6% | % Survival of recipient culture in response to added EDF [9, 14]: 14.0 ± 2.3% | mazEF-mediated cell death in a diluted culture ([10]; induced by chloramphenicol 50 μg/ml, 20 minutes): enhanced mazEF-mediated cell death | mazEF-mediated cell death in a diluted culture ([10]; induced by rifampicin in different E. Coli strains (MC4100relA^+, K38, W3110)): enhanced mazEF-mediated cell death | mazEF-mediated cell death in a diluted culture ([10]; induced by trimethoprim 2 μg/ml, 1 hour): enhanced mazEF-mediated cell death | % Cell killing following mazEF induction with rifampicin [11]: 99.5%

GNWNN: Mutated EDF pentapeptide, glycine in position 1 (Chemically synthesized mutant EDF derivative)
% Cell killing following mazEF induction with rifampicin [11]: 9% | inhibition of wild type EDF activity [12]: capable of antagonizing

NGWNN: Mutated EDF pentapeptide, glycine in position 2 (Chemically synthesized mutant EDF derivative)
% Cell killing following mazEF induction with rifampicin [11]: 51%

NNGNN: Mutated EDF pentapeptide, glycine in position 3 (Chemically synthesized mutant EDF derivative)
% Cell killing following mazEF induction with rifampicin [11]: 41%

NNNWNNN (Chemically synthesized modified EDF derivative) [heptapeptide derivative of EDF]
EDF activity [13]: partial activity

NNWGN: Mutated EDF pentapeptide, glycine in position 4 (Chemically synthesized mutant EDF derivative)
% Cell killing following mazEF induction with rifampicin [11]: 72%

NNWNG: Mutated EDF pentapeptide, glycine in position 5 (Chemically synthesized modified EDF derivative)
% Cell killing following mazEF induction with rifampicin [11]: 19% | inhibition of wild type EDF activity [12]: capable of antagonizing

NNWNQ: EDF pentapeptide with Asn replaced by Gln at the last position (Chemically synthesized modified EDF derivative)
EDF activity [13]: only a partial reduction in EDF activity

QNWNN: EDF pentapeptide with Asn replaced by Gln at the first position (Chemically synthesized modified EDF derivative)
EDF activity [13]: only a partial reduction in EDF activity
